We go through twelve compounds from the supplement of paper PMC4862054.

Assay [1] concerns BT-474. The assay can be described thus: normalised response (% of control), CellTiter-Glo; higher = more viable cells (100 = DMSO, 0 = benzethonium chloride kill control). As to conditions: incubation time: 72 h. The method, boiled down:
(§1)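 Compound was dispensed into 384-well plates at 5 concentrations in 10-fold steps spanning a 10,000-fold range specific to that compound. Breast cancer cell lines were added as 20 µl suspension and left for 72 h before CellTox Green fluorescence (485/520 nm) and then CellTiter-Glo luminescence, read after 10 min at room temperature. Each reported value is the normalised signal at one concentration, with 0.1 % DMSO set at 100 and a positive kill control at 0 on each plate.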

The subject of a further assay is CAL-120. Described as above. As to conditions: incubation time: 72 h. Put shortly: as §1
In assay [2] the test system is CAL-148. The description is as above. As to conditions: incubation time: 72 h. Put shortly:
as §1

Assay [3] relates to CAL-85-1. The assay is described as above. The conditions noted are these: incubation time: 72 h. Put shortly: as §1
In the next assay the test system is HCC1143. Described as above. The conditions noted are these: incubation time: 72 h. Put shortly: as §1
The next assay relates to HCC1599. The assay is described as above. The conditions noted are these: incubation time: 72 h. The method, boiled down:
as §1

Another assay relates to HCC1937. The description is as above. The conditions noted are these: incubation time: 72 h. Put shortly:
as §1

The test system of a further assay is Hs578T. Described as above. As to conditions: incubation time: 72 h. Put shortly:
as §1

A further assay concerns MCF-10A. Described as above. As to conditions: incubation time: 72 h. Put shortly: as §1
The test system of assay [4] is MDA-MB-453. Described as above. The conditions noted are these: incubation time: 72 h. The method, boiled down:
as §1

The test system of the next assay is MDA-MB-468. The description is as above. As to conditions: incubation time: 72 h. The method, boiled down:
as §1

For a further assay, the system named is MFM-223. Described as above. The conditions noted are these: incubation time: 72 h. The method, boiled down:
as §1

The subject of another assay is SK-BR-3. Described as above. The conditions noted are these: incubation time: 72 h. The method, boiled down: as §1
The subject of assay [5] is CAL-148. As to conditions: 72 h. Put shortly: (§2)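 Plates of 384 wells holding compound in 5 µl medium received breast cancer cell lines in 20 µl suspension and were incubated 72 h. CellTiter-Blue (2.5 µl, 2 h, 37 °C) was used for viability, read at 560/590 nm, and every plate was normalised to vehicle and a positive kill control and assessed by Z'-factor. The EC50 derives from a percent-inhibition dose-response curve fit censored at the highest concentration, leaving out rows whose drug sensitivity score was zero.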

For another assay, the system named is CAL-51. The conditions noted are these: 72 h. The method, boiled down: as §2
Assay [6] deals with CAL-85-1. As to conditions: 72 h. The method, boiled down:
as §2

In another assay the test system is HDQ-P1. As to conditions: 72 h. The method, boiled down: as §2
Assay [7] concerns MDA-MB-453. As to conditions: 72 h. The method, boiled down: as §2
Assay [8] concerns BT-474. As to conditions: 72 h. Put shortly: as §2
Assay [9] relates to CAL-85-1. As to conditions: 72 h. As to the method:
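Drug sensitivity and resistance testing (DSRT) of breast cancer cell lines in 384-well plates, 5 concentrations in 10-fold dilutions over a compound-specific 10,000-fold range. After 72 h, cytotoxicity was read by CellTox Green fluorescence and viability by CellTiter-Glo luminescence (multiplexed), normalised to DMSO and benzethonium chloride controls. EC50 is the inflection point of the fitted dose-response curve (bottom asymptote free, so it can be relative for partial curves) and is censored at the highest tested concentration. Rows with DSS 0 (no meaningful response) were excluded.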
This is another data set of the same source.

For `CCOc1cc2ncc(C#N)c(Nc3ccc(OCc4ccccn4)c(Cl)c3)c2cc1NC(=O)/C=C/CN(C)C` [Neratinib] (100 nM), the normalised response in the assay on BT-474 [1] is 102%; with CAL-120 it was 99%; in the assay with CAL-148 [2] it was 83.4%; with CAL-85-1 [3], 67.9%; in the assay on HCC1143, 98.8%; with HCC1599 it was 102%. The normalised response was determined as 88% with HCC1937; 103% in the assay with Hs578T; 43.1% with MCF-10A; 68% in the assay on MDA-MB-453 [4]; 82.8% with MDA-MB-468; 101% in the assay on MFM-223. Besides, in the assay with SK-BR-3, the normalised response was found to be 25%.
As to `CN1CCN(c2ccc3nc(-c4c(N)c5c(F)cccc5[nH]c4=O)[nH]c3c2)CC1` [Dovitinib] (1000 nM), the normalised response with BT-474 [1] came out at 95.1%; with CAL-120, 92.1%; in the assay on CAL-148 [2] it was 94.9%; in the assay on CAL-85-1 [3], 117%; in the assay on HCC1143, 99.1%; in the assay with HCC1599, 106%. For the same compound, the normalised response with HCC1937 stood at 94.7%; in the assay on Hs578T it was 101%; in the assay with MCF-10A, 97.2%; in the assay on MDA-MB-453 [4], 92%; in the assay on MDA-MB-468, 93.7%; in the assay on MFM-223, 95.4%. For the same compound, the normalised response in the assay on SK-BR-3 turned out to be 97.2%.
On to `CC(=O)O[C@H]1C(=O)[C@@]2(C)[C@H]([C@H](OC(=O)c3ccccc3)[C@]3(O)C[C@H](OC(=O)[C@H](O)[C@@H](NC(=O)c4ccccc4)c4ccccc4)C(C)=C1C3(C)C)[C@]1(OC(C)=O)CO[C@@H]1C[C@@H]2O` [Paclitaxel] (100 nM), for which the normalised response in the assay with BT-474 [1] is 36.7%; in the assay on CAL-120, 47.7%; with CAL-148 [2], 39.6%; in the assay on CAL-85-1 [3], 20.9%; in the assay on HCC1143, 30.7%; in the assay with HCC1599 it was 36.2%. Also, the normalised response in the assay with HCC1937 worked out at 66.2%; with Hs578T, 11.4%; with MCF-10A, 33.5%; with MDA-MB-453 [4], 57.5%; in the assay with MDA-MB-468, 21.7%; in the assay with MFM-223, 38.2%. Also, the normalised response in the assay on SK-BR-3 is 10.2%.
In the case of `O=c1[nH]cc(F)c(=O)[nH]1` [Fluorouracil] (1000 nM), the normalised response with BT-474 [1] worked out at 111%; in the assay with CAL-120, 106%; in the assay on CAL-148 [2], 95.6%; with CAL-85-1 [3], 52.8%; in the assay on HCC1143, 100%; with HCC1599, 84%. For the same compound, the normalised response was 94.7% in the assay on HCC1937; 97.1% in the assay on Hs578T; 116% in the assay on MCF-10A; 121% in the assay on MDA-MB-453 [4]; 98.7% in the assay with MDA-MB-468; 102% in the assay on MFM-223. Besides, the normalised response with SK-BR-3 was found to be 78.9%.
As to `CCS(=O)(=O)c1cccc(-c2cc(C(=O)NC3CCN(C)CC3)c(C)c3[nH]c4ncc(C)cc4c23)c1` [TAK-901] (100 nM), the normalised response in the assay with BT-474 [1] came to 82%; in the assay on CAL-120, 81.5%; in the assay with CAL-148 [2], 45.6%; with CAL-85-1 [3], 103%; in the assay on HCC1143 it was 77.2%; in the assay with HCC1599, 109%. For the same compound, the normalised response in the assay on HCC1937 was determined as 102%; with Hs578T, 98.2%; with MCF-10A, 80.2%; with MDA-MB-453 [4], 160%; with MDA-MB-468, 38.5%; in the assay on MFM-223, 79.5%. Moreover, in the assay with SK-BR-3, the normalised response turned out to be 106%.
Take `CC(C)C[C@H](NC(=O)[C@H](Cc1ccccc1)NC(=O)c1cnccn1)B(O)O` [Bortezomib] (100 nM): the normalised response with BT-474 [1] was 1.56%; in the assay with CAL-120, 10.4%; in the assay with CAL-148 [2], 22.6%; in the assay with CAL-85-1 [3], 1.51%; with HCC1143, 10.9%; in the assay on HCC1599 it was 56.6%. The normalised response amounted to 59% in the assay with HCC1937; 0.6% with Hs578T; 68.6% in the assay with MCF-10A; 29.7% in the assay on MDA-MB-453 [4]; 0.63% with MDA-MB-468; 3.48% in the assay with MFM-223. This compound also yielded a normalised response in the assay on SK-BR-3 of 4.21%.
As to `COc1c(C)cnc(Cn2cnc3c(Cl)nc(N)nc32)c1C` [BIIB021] (1000 nM), the normalised response in the assay on BT-474 [1] was found to be 31.1%; with CAL-120, 53.6%; in the assay with CAL-148 [2], 23.9%; in the assay with CAL-85-1 [3], 26.9%; with HCC1143 it was 38.6%; in the assay on HCC1599, 54.3%. Further, the normalised response came out at 24.7% in the assay on HCC1937; 55.5% in the assay with Hs578T; 15.4% with MCF-10A; 27.8% with MDA-MB-453 [4]; 43.4% in the assay with MDA-MB-468; 40.2% with MFM-223. Besides, the normalised response in the assay on SK-BR-3 worked out at 37.8%.
For `COc1ccc(C2=N[C@@H](c3ccc(Cl)cc3)[C@@H](c3ccc(Cl)cc3)N2C(=O)N2CCNC(=O)C2)c(OC(C)C)c1` [Nutlin-3] (1000 nM), the normalised response in the assay with BT-474 [1] amounted to 98.9%; in the assay on CAL-120 it was 93.6%; in the assay on CAL-148 [2], 101%; in the assay with CAL-85-1 [3] it was 96.8%; in the assay on HCC1143, 99.8%; in the assay with HCC1599, 117%. The normalised response with HCC1937 worked out at 102%; in the assay with Hs578T, 106%; in the assay with MCF-10A, 102%; in the assay on MDA-MB-453 [4], 102%; in the assay with MDA-MB-468, 99.9%; in the assay on MFM-223, 104%. Moreover, the normalised response in the assay with SK-BR-3 turned out to be 109%.
As for `CC(C)(C)c1cc(NC(=O)Nc2ccc(-c3cn4c(n3)sc3cc(OCCN5CCOCC5)ccc34)cc2)no1` [Quizartinib] (100 nM), the normalised response came to 108% in the assay with BT-474 [1]; 106% in the assay on CAL-120; 100% with CAL-148 [2]; 102% with CAL-85-1 [3]; 105% in the assay on HCC1143; 111% in the assay on HCC1599. In addition, the normalised response stood at 102% in the assay on HCC1937; 98.5% in the assay with Hs578T; 105% with MCF-10A; 104% with MDA-MB-453 [4]; 113% in the assay on MDA-MB-468; 109% in the assay with MFM-223. Besides, in the assay on SK-BR-3, the normalised response amounted to 105%.
In the case of `COC1=C2C[C@@H](C)C[C@H](OC)[C@H](O)[C@@H](C)/C=C(\C)[C@H](OC(N)=O)[C@@H](OC)/C=C\C=C(/C)C(=O)NC(=CC1=O)C2=O` [Geldanamycin] (1000 nM), the normalised response with BT-474 [1] is 101%; in the assay with CAL-120, 102%; in the assay with CAL-148 [2] it was 106%; in the assay on CAL-85-1 [3], 92.7%; in the assay on HCC1143 it was 102%; in the assay with HCC1599, 99.6%. Further, the normalised response in the assay with HCC1937 turned out to be 89.8%; in the assay on Hs578T, 103%; with MCF-10A, 99.7%; in the assay on MDA-MB-453 [4], 96.6%; in the assay with MDA-MB-468, 104%; with MFM-223, 40.4%. In addition, the normalised response in the assay on SK-BR-3 came to 87.1%.
As to `C[C@@]1(C(=O)Nc2ccc(F)nc2)CCCN1c1nc(Nc2cc(C3CC3)n[nH]2)c2cccn2n1` (1000 nM), the normalised response in the assay on BT-474 [1] was determined as 62.8%; in the assay with CAL-120, 59.3%; in the assay on CAL-148 [2] it was 84.9%; with CAL-85-1 [3] it was 57.6%; in the assay with HCC1143 it was 71.5%; in the assay on HCC1599, 72.8%. Further, the normalised response with HCC1937 stood at 86.9%; in the assay on Hs578T it was 86.5%; in the assay on MCF-10A it was 20.4%; with MDA-MB-453 [4] it was 115%; in the assay on MDA-MB-468 it was 21.4%; in the assay on MFM-223 it was 58.1%. This compound came in with a normalised response in the assay on SK-BR-3 of 67.9%.
Turning to `C[C@@H]1C=C2C(=O)O[C@@H]3CC[C@H](C1)[C@]23O` [Galiellalactone], the “EC50, CellTiter-Blue viability” value is 16.1 µM with CAL-148 [5]; 48.9 µM in the assay on CAL-51; 6.9 µM with CAL-85-1 [6]; 39.4 µM in the assay with HDQ-P1; 7.21 µM in the assay on MDA-MB-453 [7]; 28.9 µM with BT-474 [8]. Moreover, the “EC50, CellTox Green” value in the assay on CAL-85-1 [9] stood at 47.4 µM.
